# Read-outs that look alike come from different tables or passages of the source.
# Target: T1, SIRT1 (Homo sapiens, UniProt Q96EB6)
# T1 sequence (Q96EB6 1-747): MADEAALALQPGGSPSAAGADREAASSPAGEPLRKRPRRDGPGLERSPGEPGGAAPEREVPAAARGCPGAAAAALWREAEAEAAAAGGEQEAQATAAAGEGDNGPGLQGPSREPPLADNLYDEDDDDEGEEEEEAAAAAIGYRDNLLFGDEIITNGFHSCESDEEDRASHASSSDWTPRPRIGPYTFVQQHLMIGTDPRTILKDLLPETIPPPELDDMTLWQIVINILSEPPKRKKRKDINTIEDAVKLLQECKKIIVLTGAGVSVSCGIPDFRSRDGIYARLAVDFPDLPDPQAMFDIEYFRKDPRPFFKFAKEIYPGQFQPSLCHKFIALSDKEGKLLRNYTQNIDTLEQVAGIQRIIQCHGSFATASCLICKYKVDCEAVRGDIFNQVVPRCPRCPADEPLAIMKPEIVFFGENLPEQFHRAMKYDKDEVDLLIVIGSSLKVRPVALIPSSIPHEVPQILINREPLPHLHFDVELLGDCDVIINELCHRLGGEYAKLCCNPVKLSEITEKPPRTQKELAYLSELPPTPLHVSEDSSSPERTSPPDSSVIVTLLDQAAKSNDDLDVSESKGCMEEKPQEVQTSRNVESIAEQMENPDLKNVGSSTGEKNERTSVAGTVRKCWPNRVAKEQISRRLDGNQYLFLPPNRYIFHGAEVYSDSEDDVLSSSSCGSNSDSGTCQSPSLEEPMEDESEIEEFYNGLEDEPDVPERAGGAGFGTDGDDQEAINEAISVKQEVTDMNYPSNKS
# Assay: Trp mass spectrometry assay of SIRT1 activation
# Assay type: biochemical
# Conditions: for TRP Activity (EC1.5): EC1.5 = concentration that results in 150% activation of SIRT1; for Emax: read-out: TRP MAX RESP (percent maximum fold activation)
# Method in brief: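 Activation read-out: mass-spec measurement of O-acetyl-ADP-ribose or deacetylated Trp peptide versus compound-free controls, giving EC1.5 and Percent Maximum Activation. Reactions ran 25 min at 25 °C, pH 7.5, with 120 μM βNAD+, 0.5 μM acetylated p53-derived peptide and 10 nM His-tagged SIRT1.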
# [1] = Trp peptide assay, maximum activity relative to control (100%)
Structure (SMILES),TRP Activity (EC1.5) (Trp peptide assay),Emax [1] [%],Emax [%]
"Cc1cncc(-c2ccc3c(n2)N(C(=O)Nc2cnccn2)[C@H]2CCN3C2)c1 [(9S)-5-(5-methylpyridin-3-yl)-N-(pyrazin-2-yl)-1,6,8-triazatricyclo[7.2.1.0 {2,7}]dodeca-2(7),3,5-triene-8-carboxamide]",B (B (EC1.5 1-25 μM)),> 150,–
"N#Cc1ncc(-c2ccc3c(n2)N(C(=O)Nc2cnccn2)[C@H]2CCN3C2)cc1F [(9S)-5-(6-cyano-5-fluoropyridin-3-yl)-N-(pyrazin-2-yl)-1,6,8-triazatricyclo[7.2.1.0^2,7]dodeca-2(7),3,5-triene-8-carboxamide]",C (C (EC1.5>25 μM)),< 150,–
"Cc1cc(-c2ccc3c(n2)N(C(=O)Nc2cnccn2)[C@H]2CCN3C2)cnc1C#N [(9S)-5-(6-cyano-5-methylpyridin-3-yl)-N-(pyrazin-2-yl)-1,6,8-triazatricyclo[7.2.1.0 {2,7}]dodeca-2(7),3,5-triene-8-carboxamide]",B (B (EC1.5 1-25 μM)),> 150,–
"N#Cc1ccc(-c2ccc3c(n2)N(C(=O)Nc2cnccn2)[C@H]2CCN3C2)cn1 [(9S)-5-(6-cyanopyridin-3-yl)-N-(pyrazin-2-yl)-1,6,8-triazatricyclo[7.2.1.0 {2,7}]dodeca-2,4,6-triene-8-carboxamide]",C (C (EC1.5>25 μM)),< 150,–
"N#Cc1ccc(-c2ccc3c(n2)N(C(=O)Nc2cccnc2)[C@H]2CCN3C2)cn1 [(9S)-5-(6-cyanopyridin-3-yl)-N-(pyridin-3-yl)-1,6,8-triazatricyclo[7.2.1.0^2,7]dodeca-2,4,6-triene-8-carboxamide]",B (B (EC1.5 1-25 μM)),> 150,–
"O=C(Nc1cnccn1)N1c2nc(-c3ccc(C4CC4)nc3)ccc2N2CC[C@H]1C2 [(9S)-5-(6-cyclopropylpyridin-3-yl)-N-(pyrazin-2-yl)-1,6,8-triazatricyclo[7.2.1.0 {2,7}]dodeca-2(7),3,5-triene-8-carboxamide]",B (B (EC1.5 1-25 μM)),> 150,–
"CCc1ccc(-c2ccc3c(n2)N(C(=O)Nc2cnccn2)[C@H]2CCN3C2)cn1 [(9S)-5-(6-ethylpyridin-3-yl)-N-(pyrazin-2-yl)-1,6,8-triazatricyclo[7.2.1.0 {2,7}]dodeca-2(7),3,5-triene-8-carboxamide]",B (B (EC1.5 1-25 μM)),> 150,–
"Cc1ccc(-c2ccc3c(n2)N(C(=O)NCC(F)(F)F)[C@H]2CCN3C2)cn1 [(9S)-5-(6-methylpyridin-3-yl)-N-(2,2,2-trifluoroethyl)-1,6,8-triazatricyclo[7.2.1.0^{2,7}]dodeca-2(7),3,5-triene-8-carboxamide]",B (B (EC1.5 1-25 μM)),> 150,–
"Cc1ccc(-c2ccc3c(n2)N(C(=O)NC2CCCOC2)[C@H]2CCN3C2)cn1 (stereo partly drawn) [(9S)-5-(6-methylpyridin-3-yl)-N-(oxan-3-yl)-1,6,8-triazatricyclo[7.2.1.0^{2,7}]dodeca-2(7),3,5-triene-8-carboxamide]",C (C (EC1.5>25 μM)),< 150,–
"Cc1ccc(-c2ccc3c(n2)N(C(=O)NC2CCOCC2)[C@H]2CCN3C2)cn1 [(9S)-5-(6-methylpyridin-3-yl)-N-(oxan-4-yl)-1,6,8-triazatricyclo[7.2.1.0^{2,7}]dodeca-2(7),3,5-triene-8-carboxamide]",C (C (EC1.5>25 μM)),< 150,–
"Cc1ccc(-c2ccc3c(n2)N(C(=O)NC2CCOC2)[C@H]2CCN3C2)cn1 (stereo partly drawn) [(9S)-5-(6-methylpyridin-3-yl)-N-(oxolan-3-yl)-1,6,8-triazatricyclo[7.2.1.0 {2,7}]dodeca-2,4,6-triene-8-carboxamide]",C (C (EC1.5>25 μM)),< 150,–
"Cc1ccc(-c2ccc3c(n2)N(C(=O)NC(C)C)[C@H]2CCN3C2)cn1 [(9S)-5-(6-methylpyridin-3-yl)-N-(propan-2-yl)-1,6,8-triazatricyclo[7.2.1.0^{2,7}]dodeca-2,4,6-triene-8-carboxamide]",B (B (EC1.5 1-25 μM)),> 150,–
"Cc1ccc(-c2ccc3c(n2)N(C(=O)Nc2ccnc(O[C@H]4CCOC4)n2)[C@H]2CCN3C2)cn1 [(9S)-5-(6-methylpyridin-3-yl)-N-{2-[(3S)-oxolan-3-yloxy]pyrimidin-4-yl}-1,6,8-triazatricyclo[7.2.1.0 {2,7}]dodeca-2,4,6-triene-8-carboxamide]",B (B (EC1.5 1-25 μM)),> 150,–
"O=C(Nc1cnccn1)N1c2nc(N3CCOCC3)ccc2N2CC[C@H]1C2 [(9S)-5-(morpholin-4-yl)-N-(pyrazin-2-yl)-1,6,8-triazatricyclo[7.2.1.0 {2,7}]dodeca-2,4,6-triene-8-carboxamide]",B (B (EC1.5 1-25 μM)),> 150,–
"O=C(NC1CC1)c1ccc2c(n1)N(C(=O)Nc1ccccn1)[C@H]1CCN2C1 [(9S)-5-N-cyclopropyl-8-N-(pyridin-2-yl)-1,6,8-triazatricyclo[7.2.1.0^{2,7}]dodeca-2(7),3,5-triene-5,8-dicarboxamide]",A (A (EC1.5<1 μM)),–,> 150

# The next lines start with results.
TRP Activity (EC1.5) (Trp peptide assay),Emax [1] [%],Structure (SMILES),Emax [%]
C (C (EC1.5>25 μM)),< 150,"O=C(Nc1cnccn1)N1c2nc(N3CCNCC3)ccc2N2CC[C@H]1C2 [(9S)-5-(piperazin-1-yl)-N-(pyrazin-2-yl)-1,6,8-triazatricyclo[7.2.1.0 {2,7}]dodeca-2,4,6-triene-8-carboxamide]",–
B (B (EC1.5 1-25 μM)),> 150,"O=C(Nc1cnccn1)N1c2nc(N3CCCCC3)ccc2N2CC[C@H]1C2 [(9S)-5-(piperidin-1-yl)-N-(pyrazin-2-yl)-1,6,8-triazatricyclo[7.2.1.0 {2,7}]dodeca-2,4,6-triene-8-carboxamide]",–
B (B (EC1.5 1-25 μM)),> 150,"CC(CO)NC(=O)c1ccc2c(n1)N(C(=O)Nc1ccccn1)[C@H]1CCN2C1 (stereo partly drawn) [(9S)-5-N-(1-hydroxypropan-2-yl)-8-N-(pyridin-2-yl)-1,6,8-triazatricyclo[7.2.1.0^{2,7}]dodeca-2(7),3,5-triene-5,8-dicarboxamide]",–
B (B (EC1.5 1-25 μM)),> 150,"COCC(C)NC(=O)c1ccc2c(n1)N(C(=O)Nc1ccccn1)[C@H]1CCN2C1 (stereo partly drawn) [(9S)-5-N-(1-methoxypropan-2-yl)-8-N-(pyridin-2-yl)-1,6,8-triazatricyclo[7.2.1.0^{2,7}]dodeca-2(7),3,5-triene-5,8-dicarboxamide]",–
B (B (EC1.5 1-25 μM)),> 150,"O=C(NCCO)c1ccc2c(n1)N(C(=O)Nc1ccccn1)[C@H]1CCN2C1 [(9S)-5-N-(2-hydroxyethyl)-8-N-(pyridin-2-yl)-1,6,8-triazatricyclo[7.2.1.0^{2,7}]dodeca-2(7),3,5-triene-5,8-dicarboxamide]",–
A (A (EC1.5<1 μM)),> 150,"O=C(NCC1CC1)c1ccc2c(n1)N(C(=O)Nc1ccccn1)[C@H]1CCN2C1 [(9S)-5-N-(cyclopropylmethyl)-8-N-(pyridin-2-yl)-1,6,8-triazatricyclo[7.2.1.0 {2,7}]dodeca-2(7),3,5-triene-5,8-dicarboxamide]",–
B (B (EC1.5 1-25 μM)),> 150,"O=C(NC1CCCOC1)c1ccc2c(n1)N(C(=O)Nc1ccccn1)[C@H]1CCN2C1 (stereo partly drawn) [(9S)-5-N-(oxan-3-yl)-8-N-(pyridin-2-yl)-1,6,8-triazatricyclo[7.2.1.0 {2,7}]dodeca-2(7),3,5-triene-5,8-dicarboxamide]",–
B (B (EC1.5 1-25 μM)),> 150,"O=C(NC1CCOCC1)c1ccc2c(n1)N(C(=O)Nc1ccccn1)[C@H]1CCN2C1 [(9S)-5-N-(oxan-4-yl)-8-N-(pyridin-2-yl)-1,6,8-triazatricyclo[7.2.1.0 {2,7}]dodeca-2(7),3,5-triene-5,8-dicarboxamide]",–
B (B (EC1.5 1-25 μM)),> 150,"O=C(NC1CCOC1)c1ccc2c(n1)N(C(=O)Nc1ccccn1)[C@H]1CCN2C1 (stereo partly drawn) [(9S)-5-N-(oxolan-3-yl)-8-N-(pyridin-2-yl)-1,6,8-triazatricyclo[7.2.1.0 {2,7}]dodeca-2(7),3,5-triene-5,8-dicarboxamide]",–
A (A (EC1.5<1 μM)),> 150,"O=C(NC1CCC1)c1ccc2c(n1)N(C(=O)Nc1ccccn1)[C@H]1CCN2C1 [(9S)-5-N-cyclobutyl-8-N-(pyridin-2-yl)-1,6,8-triazatricyclo[7.2.1.0^{2,7}]dodeca-2(7),3,5-triene-5,8-dicarboxamide]",–
A (A (EC1.5<1 μM)),> 150,"CCNC(=O)c1ccc2c(n1)N(C(=O)Nc1ccccn1)[C@H]1CCN2C1 [(9S)-5-N-ethyl-8-N-(pyridin-2-yl)-1,6,8-triazatricyclo[7.2.1.0 {2,7}]dodeca-2(7),3,5-triene-5,8-dicarboxamide]",–

# Reference: patent US9834558B2, “Substituted bridged urea analogs as sirtuin modulators” (GLAXOSMITHKLINE LLC, priority 2013, dated 2017)
